Experimental data as given in article PMC6820105, “Data on synthesis, ADME and pharmacological properties and early safety pharmacology evaluation of a series of novel NURR1/NOT agonist potentially useful for the treatment of Parkinson's disease” (Data in Brief, 2019).
Read-outs that look alike come from different tables or passages of the source.

Assays:
[1] = tested on: anesthetized mongrel dogs; test: Hemodynamic, electrocardiographic and electrophysiological effects in anesthetized mongrel dogs; assay type: in vivo; details: dog, 10 mg/kg single 5-min i.v. infusion, monitored up to 60 min, n = 3
Procedure: Six fasted adult mongrel dogs (weighing 18–26 kg) were anesthetized with 20 mg/kg sodium thiopental i.v. Animals were artificially ventilated with a gaseous mixture composed of O^2/air supplemented with around 1.5% end-tidal fraction of isoflurane. Tidal volume and respiratory rate was set at 20 mL/kg and 16 breaths/min. Arterial blood gas was controlled and respiratory adjusted to maintain pH between 7.36 and 7.44, PaO^2 > 80 mmHg and PaCO^2 < 40 mmHg. Four limbs electrodes were positioned to obtain a surface ECG. Two bipolar electrodes were positioned in the right atrium via a jugular access, one to record the atrial electrogram and the second one to stimulate the atrium. A bipolar electrode and a quadripolar electrode were inserted via venous and arterial femoral access and positioned in the right ventricular apex and in the His bundle region, respectively. These electrodes were connected to a programmable stimulator and to a computerized physiograph system. […]
The auricular diastolic stimulation threshold was evaluated with rectangular current pulse (2 ms duration) increased in steps of 0.1 mA and delivered at fixed rate pacing (S1S1) of 400 or 350 ms in function of animal basal cycle length. […]

[2] = Plasma and heart concentrations after 5-min i.v. administration in anesthetized male Hartley guinea pigs; assay type: in vivo; details: iv, guinea pig, 10 mg/kg 5-min i.v.
Procedure: Cpd 38 was dissolved in a 75% PEG400 aqueous solution and administered to guinea pigs (n = 6) at 10 mg/kg as a single 5-min intravenous infusion under a volume of 0.5 mL/kg. Control animals (n = 10) received the vehicle only, under the same experimental conditions.
Blood samples were drawn from a carotid artery at 10 and 30 minutes after the beginning of the drug perfusion and after centrifugation plasma samples were stored frozen until analysis.
At the end of the experiment (around 30 minutes following the beginning of the drug perfusion), the heart was removed and a few grams of tissue were collected from right and left ventricles stored frozen at - 20 °C until analysis.
Analysis of samples was performed using an exploratory LC-MS-MS assay method. Plasma (LOQ of 2 ng/mL) and tissue (LOQ of 10 ng/g) concentrations of Cpd 38 (expressed as active ingredient).were determined.

[3] = Plasma and heart concentrations after 5-min i.v. administration in anesthetized mongrel dogs; assay type: in vivo; details: iv, dog, 10 mg/kg 5-min i.v.
Procedure: Cpd 38 was dissolved in a 75% PEG400 aqueous solution and administered to dogs (n = 3) at 10 mg/kg as a single 5-min intravenous infusion under a volume of 0.5 mL/kg. Control animals (n = 3) received the vehicle only, under the same experimental conditions.
Blood samples were drawn from a femoral artery at 10 and 60 minutes after the beginning of the drug perfusion and after centrifugation plasma samples were stored frozen at −20 °C until analysis.
At the end of the experiment (around 60 minutes following the beginning of the drug perfusion), the heart was removed and a few grams of tissue were collected from right and left ventricles stored frozen at - 20 °C until analysis.
Analysis of samples was performed using an exploratory LC-MS-MS assay method. Plasma (LOQ of 2 ng/mL) and tissue (LOQ of 3 ng/g) concentrations of Cpd 38 were determined.

[4] = tested on: anesthetized male Hartley guinea pigs; test: Hemodynamic and electrocardiographic effects in anesthetized male Hartley guinea pigs; assay type: in vivo; details: guinea pig, 10 mg/kg single 5-min i.v. infusion, monitored up to 30 min, n = 6
Procedure: Male Hartley guinea pigs (weighing 400–500 g) were anesthetized with 35 mg/kg sodium pentobarbital i.p. and let under spontaneous breathing conditions. The body temperature was maintained at 37.5 ± 0.5 °C throughout the experiment. For implantation of vascular catheters, cutaneous incision, subcutaneous and muscular dissections were performed after application of local anesthetic (lidocain, 20 mg/kg). A carotid artery and a jugular vein were catheterized to allow recording of arterial blood pressure and intravenous administration of the drug, respectively. The arterial micromanometer catheter was connected to a pressure transducer. For the electrocardiogram recording, five electrodes were inserted in the subcutaneous layer of fore- and hind-limb. The pressure transducer and ECG electrodes were linked to Gould pre-amplifiers. The amplifiers were connected to a Notocord-Hem computerized data acquisition system and recorded at a sampling rate of 1000 Hz. Either lead I or lead II were recorded, depending on which the better separation of T wave from P wave of the next complex was achieved.
Cpd 38 was dissolved in a 75% PEG400 aqueous solution and administered to guinea pigs (n = 6) at 10 mg/kg as a single 5-min intravenous infusion under a volume of 0.5 mL/kg. Control animals (n = 10) received the vehicle only, under the same experimental conditions. […]

[5] = biological target: NURR1/NOT nuclear receptor (Homo sapiens, UniProt P43354); test: Gal4 reporter gene assay (EC50 / Emax Gal4); assay type: cell-based; details: for Emax Gal4: Table 1
[6] = heart (right and left ventricles), read-out: Heart concentration
[7] = plasma, mean ± SD, n = 6, read-out: Total plasma concentration
[8] = plasma, read-out: Total plasma concentration
[9] = plasma, mean ± SD, n = 3, read-out: Total plasma concentration
[10] = Table 1, replacements of the hydroxymethyl of cpd 4, read-out: EC50 Gal4

Chain of NURR1/NOT nuclear receptor (P43354 whole entry, the tested form may be a part): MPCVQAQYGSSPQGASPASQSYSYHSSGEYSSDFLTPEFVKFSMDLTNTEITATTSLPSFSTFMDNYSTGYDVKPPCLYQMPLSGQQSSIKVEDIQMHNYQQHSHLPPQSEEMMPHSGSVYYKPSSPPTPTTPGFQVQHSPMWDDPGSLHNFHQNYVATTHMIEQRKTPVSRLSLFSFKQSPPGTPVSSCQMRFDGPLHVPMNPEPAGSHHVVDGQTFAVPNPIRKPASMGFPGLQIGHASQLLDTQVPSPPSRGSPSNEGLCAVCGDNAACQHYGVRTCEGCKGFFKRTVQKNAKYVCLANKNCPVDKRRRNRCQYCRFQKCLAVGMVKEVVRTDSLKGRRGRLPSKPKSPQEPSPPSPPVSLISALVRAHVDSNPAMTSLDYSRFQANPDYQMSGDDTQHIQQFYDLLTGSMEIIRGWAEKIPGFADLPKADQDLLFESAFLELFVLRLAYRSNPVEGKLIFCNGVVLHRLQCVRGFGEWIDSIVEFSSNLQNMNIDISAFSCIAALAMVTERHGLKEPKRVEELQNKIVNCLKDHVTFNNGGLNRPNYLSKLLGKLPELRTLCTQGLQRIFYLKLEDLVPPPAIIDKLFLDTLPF

CC(C)(O)c1cccc(-c2ccc3nc(-c4ccc(Cl)cc4)cn3c2)c1 [Cpd 38, 2-(3-[2-(4-Chlorophenyl)imidazo[1,2-a]pyridin-6-yl]phenyl)propan-2-ol]
Hemodynamic, ECG and electrophysiological effects [1]: No major hemodynamic, ECG and electrophysiological effects were observed
concentration at 30 min ([2]; heart (right and left ventricles), mean ± SD, n = 6, read-out: Heart concentration): 6010 ± 964 ng/g
concentration at 30 min [2, 6]: 16.6 µM
concentration at 10 min [2, 7]: 4660 ± 1350 ng/mL
concentration at 10 min [2, 8]: 12.8 µM
concentration at 30 min [2, 7]: 2570 ± 533 ng/mL
concentration at 30 min [2, 8]: 7.1 µM
concentration at 60 min ([3]; heart (right and left ventricles), mean ± SD, n = 3, read-out: Heart concentration): 14600 ± 2700 ng/g
concentration at 60 min [3, 6]: 40.2 µM
concentration at 10 min [3, 9]: 23400 ± 2830 ng/mL
concentration at 10 min [3, 8]: 64.5 µM
concentration at 60 min [3, 9]: 10100 ± 769 ng/mL
concentration at 60 min [3, 8]: 27.8 µM
Hemodynamic and ECG effects [4]: No major hemodynamic and ECG effects were observed

OC1(c2cccc(-c3ccc4nc(-c5ccc(Cl)cc5)cn4c3)c2)CCOCC1 [Cpd 40, 4-(3-(2-(4-chlorophenyl)imidazo[1,2-a]pyridin-6-yl)phenyl)tetrahydro-2H-pyran-4-ol]
melting point: 224 to 225 °C

CC(O)(CO)c1cccc(-c2ccc3nc(-c4ccc(Cl)cc4)cn3c2)c1 (stereo not drawn) [Cpd 41, 2-(3-(2-(4-chlorophenyl)imidazo[1,2-a]pyridin-6-yl)phenyl)propane-1,2-diol]
melting point: 192 to 194 °C

Cc1cccc(-c2ccc3nc(-c4ccc(Cl)cc4)cn3c2)c1 [Cpd S1, 2-(4-Chlorophenyl)-6-(m-tolyl)imidazo[1,2-a]pyridine]
melting point: 145 to 147 °C

COCc1cccc(-c2ccc3nc(-c4ccc(Cl)cc4)cn3c2)c1 [Cpd S2, 2-(4-Chlorophenyl)-6-(3-(methoxymethyl)phenyl)imidazo[1,2-a]pyridine]
melting point: 135 to 137 °C

CN(C)Cc1cccc(-c2ccc3nc(-c4ccc(Cl)cc4)cn3c2)c1 [Cpd S3, 1-(3-(2-(4-chlorophenyl)imidazo[1,2-a]pyridin-6-yl)phenyl)-N,N-dimethylmethanamine]
melting point: 290 to 292 °C

Clc1ccc(-c2cn3cc(-c4cccc(CN5CCCC5)c4)ccc3n2)cc1 [Cpd S4, 1-(3-(2-(4-chlorophenyl)imidazo[1,2-a]pyridin-6-yl)phenyl)-N-pyrolidine]
EC50 [5, 10]: > 3000 nM

Clc1ccc(-c2cn3cc(-c4cccc(CN5CCOCC5)c4)ccc3n2)cc1 [Cpd S5, 1-(3-(2-(4-chlorophenyl)imidazo[1,2-a]pyridin-6-yl)phenyl)-N-morpholine]
EC50 [5, 10]: > 3000 nM

NC(=O)c1cccc(-c2ccc3nc(-c4ccc(Cl)cc4)cn3c2)c1 [Cpd S7, 3-(2-(4-chlorophenyl)imidazo[1,2-a]pyridin-6-yl)benzamide]
melting point: 246 to 248 °C
Emax Gal4 [5]: 210 ± 5
EC50 [5, 10]: 1580 ± 35 nM

CNC(=O)c1cccc(-c2ccc3nc(-c4ccc(Cl)cc4)cn3c2)c1 [Cpd S8, 3-(2-(4-chlorophenyl)imidazo[1,2-a]pyridin-6-yl)-N-methylbenzamide]
melting point: 225 to 227 °C
Emax Gal4 [5]: 226 ± 66
EC50 [5, 10]: 87 ± 28 nM

CCN(CC)C(=O)c1cccc(-c2ccc3nc(-c4ccc(Cl)cc4)cn3c2)c1 [Cpd S9, 3-(2-(4-chlorophenyl)imidazo[1,2-a]pyridin-6-yl)-N,N-diethylbenzamide]
melting point: 162 to 164 °C

N#Cc1cccc(-c2ccc3nc(-c4ccc(Cl)cc4)cn3c2)c1 [Cpd S10, 3-(2-(4-chlorophenyl)imidazo[1,2-a]pyridin-6-yl)benzonitrile]
melting point: 195 to 197 °C

CC(C)CC(O)c1cccc(-c2ccc3nc(-c4ccc(Cl)cc4)cn3c2)c1 (stereo not drawn) [Cpd S15, 1-(3-(2-(4-chlorophenyl)imidazo[1,2-a]pyridin-6-yl)phenyl)-3-methylbutan-1-ol]
EC50 ([5]; Table 2, alkyl or aryl groups on the carbinol, read-out: EC50 Gal4 t): > 3000 nM
